Results as given in ChEMBL document CHEMBL4418305, “Alkyl-, acyl-, urea-, and aza-uracil sulfide:quinone oxidoreductase inhibitors” (2017).

What was measured:
[1] = biological target: T1, Sulfide:quinone oxidoreductase, mitochondrial (Homo sapiens, UniProt Q9Y6N5); assay: Inhibition of SQOR (unknown origin) at 10 uM using sodium sulfide, sodium sulfite and coenzyme Q1 by UV absorbance method relative to control
Target sequence in this assay (Q9Y6N5 whole entry, looked up): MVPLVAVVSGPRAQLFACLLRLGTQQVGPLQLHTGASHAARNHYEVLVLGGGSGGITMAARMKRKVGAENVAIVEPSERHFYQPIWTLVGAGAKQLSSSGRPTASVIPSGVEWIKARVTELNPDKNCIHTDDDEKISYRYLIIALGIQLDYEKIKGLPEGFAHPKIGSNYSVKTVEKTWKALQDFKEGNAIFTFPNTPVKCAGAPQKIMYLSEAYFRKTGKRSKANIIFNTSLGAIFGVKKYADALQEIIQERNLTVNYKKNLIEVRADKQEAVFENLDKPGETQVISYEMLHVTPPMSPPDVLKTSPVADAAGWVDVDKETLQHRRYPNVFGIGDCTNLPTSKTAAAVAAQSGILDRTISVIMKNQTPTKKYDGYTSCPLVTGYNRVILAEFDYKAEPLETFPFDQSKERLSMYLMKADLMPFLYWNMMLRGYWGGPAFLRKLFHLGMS

[2] = biological target: T1, Sulfide:quinone oxidoreductase, mitochondrial; assay: Inhibition of SQOR (unknown origin) using sodium sulfide, sodium sulfite and coenzyme Q1 by UV absorbance method
Target sequence in this assay (Q9Y6N5 whole entry): as the sequence (Q9Y6N5 whole entry, looked up) above

inhibition [1] | IC50 [2] | pIC50 [2] | Compound
95 to 100% |  |  | AUROTHIOGLUCOSE [listing 1 of 2 here]
10 to 50% |  |  | O=c1c(F)cn(CCc2ccccc2)c(=O)n1CCc1ccccc1
10 to 50% |  |  | O=C(NCc1ccccc1)n1cc(F)c(=O)[nH]c1=O
10 to 50% | < 20 µM |  | CCCCCCCC(=O)n1c(C)c(Br)c(=O)[nH]c1=O
10 to 50% |  |  | CC(C)C(=O)n1nc(Br)c(=O)[nH]c1=O
10 to 50% | 20 to 100 µM |  | CCCCCCCC(=O)n1cc(Br)c(=O)[nH]c1=O
10 to 50% | < 20 µM |  | CCCCCCCCn1cc(F)c(=O)n(CCCCCCCC)c1=O
10 to 50% | < 20 µM |  | CCCCCCCCn1c(C)c(F)c(=O)n(CCCCCCCC)c1=O
10 to 50% | 20 to 100 µM |  | CCCCCCCC(=O)n1nc(C)c(=O)[nH]c1=O
> 50% | < 20 µM |  | O=C(CC1CCCCC1)n1nc(Br)c(=O)[nH]c1=O
> 50% | < 20 µM |  | CCCCCCCCNC(=O)n1cc(Cl)c(=O)[nH]c1=O
10 to 50% | < 20 µM |  | CCCCCCCC(=O)n1c(I)cc(=O)[nH]c1=O
10 to 50% | < 20 µM |  | CCCCCC(=O)n1nc(Br)c(=O)[nH]c1=O
> 50% | 100 to 500 µM |  | CCCCCCCCCC(=O)n1nc(Br)c(=O)[nH]c1=O
10 to 50% |  |  | CCCCCCCC(=O)n1cc(Cl)c(=O)[nH]c1=O
> 50% | < 20 µM |  | O=C(CCC1CCCC1)n1nc(Br)c(=O)[nH]c1=O
6% |  |  | CCCNC(=O)n1cc(F)c(=O)[nH]c1=O
> 50% | < 20 µM |  | O=C(C1CCCCC1)n1nc(Br)c(=O)[nH]c1=O

inhibition [1] | IC50 [2] | pIC50 [2] | Compound
3% |  |  | CCCCCCCC(=O)n1cc(F)c(=O)[nH]c1=O
> 50% | < 20 µM |  | CCCCCn1cc(F)c(=O)n(CCCCC)c1=O
> 50% | < 20 µM |  | CCCCCCn1cc(F)c(=O)n(CCCCCC)c1=O
> 50% | < 20 µM |  | CCCCCCCC(=O)n1nc(Br)c(=O)[nH]c1=O
> 50% | < 20 µM |  | CCCCCn1c(C)c(F)c(=O)n(CCCCC)c1=O
10 to 50% |  |  | CCCCCn1c(Cl)cc(=O)n(CCCCC)c1=O
 | 0.925 to 0.93 µM | 6.034 | AUROTHIOGLUCOSE [listing 2 of 2 here]
7% |  |  | O=C(NCCc1ccccc1)n1cc(F)c(=O)[nH]c1=O
10 to 50% |  |  | O=c1c(F)cn(CCC2CCCCC2)c(=O)n1CCC1CCCCC1
10 to 50% |  |  | O=C(c1ccccc1)n1nc(Br)c(=O)[nH]c1=O
10 to 50% |  |  | CC(C)CCCn1cc(F)c(=O)n(CCCC(C)C)c1=O
10 to 50% | < 20 µM |  | CCCCCCCC(=O)n1c(Cl)cc(=O)[nH]c1=O
> 50% |  |  | CCCCCCCCCCCC(=O)n1nc(Br)c(=O)[nH]c1=O
> 50% | < 20 µM |  | CCCCCCCn1cc(F)c(=O)n(CCCCCCC)c1=O
10 to 50% |  |  | CCCCCCC(=O)n1cc(F)c(=O)n(C)c1=O
10 to 50% | < 20 µM |  | CCCCCCCCNC(=O)n1cc(F)c(=O)[nH]c1=O
> 50% |  |  | CCCCCCCCCCCCCC(=O)n1nc(Br)c(=O)[nH]c1=O

Compound | inhibition [1] | IC50 [2] | pIC50 [2]
CCCCCCNC(=O)n1cc(F)c(=O)[nH]c1=O [CARMOFUR] | 10 to 50% | 20 to 100 µM | 
